Columns and labels:
Bacillus cereus = assay: Inhibition of Bacillus cereus PC-PLC assessed as residual activity at 10 uM using phosphatidylcholine as substrate measured after 1 hr by horseradish peroxidase/alkaline phosphatase/choline oxidase-coupled amplex red reagent based fluorescence assay relative to control
[1] = Inhibition of Bacillus cereus PC-PLC using phosphatidylcholine as substrate measured after 1 hr by horseradish peroxidase/alkaline phosphatase/choline oxidase-coupled amplex red reagent based fluorescence assay
MDA-MB-231 = assay: Cytotoxicity against human MDA-MB-231 cells assessed as reduction in cell proliferation measured at 50 ug/ml measured after 48 to 72 hrs by trypan blue exclusion assay relative to control; assay type: functional; design: scale not given: the % may be the effect or the level left; conditions: dose 50 µg/ml; time 48-72 hrs

SMILES	Activity (Bacillus cereus)	further results
S=C([S-])OC1CC2CC1C1CCCC21.[K+] (stereo not drawn)	40.3%	IC50 [1]: 8.08 µM; Ki [1]: 6.4 µM; Activity (MDA-MB-231): 60%
O=C(O)c1cc(NCc2cccc(Cl)c2)ccc1N1CCOCC1	10.7%	IC50 [1]: 3.6 µM
CC(C)(C)OC(=O)N1CCN(c2ccc(NCc3cccc(O)c3)cc2)CC1	18.4%	–
Oc1ccccc1CNc1ccc(N2CCNCC2)cc1	37.9%	–
Brc1ccccc1CNc1ccc(N2CCOCC2)cc1	14.1%	–
O=C(O)c1cc(NCc2cccc(C(F)(F)F)c2)ccc1N1CCOCC1	44.6%	–
COc1ccccc1CNc1ccc(N2CCNCC2)cc1	27.7%	–
Brc1ccccc1CNc1ccc(N2CCNCC2)cc1	26.8%	–
COC(=O)c1cc(NCc2ccccc2Cl)ccc1N1CCOCC1	73.1%	–
COC(=O)c1cc(NCc2ccccc2O)ccc1N1CCOCC1	38.6%	–
COC(=O)c1cc(NCc2ccccc2C)ccc1N1CCOCC1	58.4%	–
CC(C)(C)OC(=O)N1CCN(c2ccc(NCc3ccccc3O)cc2)CC1	26.5%	–
COC(=O)c1cc(NCc2cccc(F)c2)ccc1N1CCOCC1	64.5%	–
FC(F)(F)c1ccccc1CNc1ccc(N2CCNCC2)cc1	30.4%	–
COC(=O)c1cc(NCc2cccc(OC)c2)ccc1N1CCOCC1	64.6%	–
Cc1cccc(CNc2ccc(N3CCOCC3)c(C(=O)O)c2)c1	23.7%	–
COC(=O)c1cc(NCc2cccc(Cl)c2)ccc1N1CCOCC1	65.6%	–
O=C(O)c1cc(NCc2ccccc2Br)ccc1N1CCOCC1	40.4%	–
O=C(O)c1cc(NCc2ccc(C(F)(F)F)cc2)ccc1N1CCOCC1	45.5%	–
O=C(O)c1cc(NCc2ccc(Br)cc2)ccc1N1CCOCC1	28.7%	–
COc1ccccc1CNc1ccc(N2CCOCC2)cc1	1.2%	–
CC(C)(C)OC(=O)N1CCN(c2ccc(NCc3ccccc3Br)cc2)CC1	35.6%	–
COC(=O)c1cc(NCc2cccc(C)c2)ccc1N1CCOCC1	54%	–
Cc1ccccc1CNc1ccc(N2CCN(C(=O)OC(C)(C)C)CC2)cc1	32.2%	–
CC(C)(C)OC(=O)N1CCN(c2ccc(NCc3ccccc3C(F)(F)F)cc2)CC1	41.3%	–
O=C(O)c1cc(NCc2cccc(O)c2)ccc1N1CCOCC1	41.6%	–

The next lines start with results.

Activity (Bacillus cereus)	SMILES	further results
0%	Fc1ccccc1CNc1ccc(N2CCOCC2)cc1	IC50 [1]: 1.06 µM
23%	Clc1ccc(CNc2ccc(N3CCCCC3)cc2)cc1	–
26.3%	c1ccc(CNc2ccc(N3CCNCC3)cc2)cc1	–
26.7%	O=C(O)c1cc(NCc2ccc(Cl)cc2)ccc1N1CCOCC1	–
53.3%	CC(C)(C)OC(=O)N1CCN(c2ccc(NCc3ccc(Cl)cc3)cc2)CC1	–
6.5%	Oc1ccc(CNc2ccc(N3CCOCC3)cc2)cc1	–
11.6%	Brc1cccc(CNc2ccc(N3CCOCC3)cc2)c1	–
6.1%	Fc1cccc(CNc2ccc(N3CCOCC3)cc2)c1	–
9.1%	Clc1cccc(CNc2ccc(N3CCOCC3)cc2)c1	–
87.5%	COC(=O)c1cc(NCc2ccc(Cl)cc2)ccc1N1CCOCC1	–
9%	Fc1ccccc1CNc1ccc(N2CCCCC2)cc1	–
11%	Oc1ccc(CNc2ccc(N3CCCCC3)cc2)cc1	–

— ChEMBL document CHEMBL4680202, “Development, synthesis and biological investigation of a novel class of potent PC-PLC inhibitors” (Eur J Med Chem, 2020)
